From ChEMBL document CHEMBL1201862, “PubChem BioAssay data set” (2004)
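Five concentrations, 48 hours, 96-well plates. The concentration for 50% growth inhibition is given as GI50.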 Activity calls are given as the source filed them. Rule as the data show it: active = GI50 up to about 1.1 µM and inactive = higher.

Legend:
Assay in all cases: inhibition of tumour cell growth, NCI panel, 48 h
SK-MEL-2 = tested on: SK-MEL-2
UACC-62 = tested on: UACC-62
Malme-3M = tested on: Malme-3M
SW-620 = tested on: SW-620
OVCAR-5 = tested on: OVCAR-5
A549 = tested on: A549
TK-10 = tested on: TK-10
T47D = tested on: T47D
SK-MEL-28 = tested on: SK-MEL-28
OVCAR-4 = tested on: OVCAR-4
SF-295 = tested on: SF-295
SF-268 = tested on: SF-268
HL-60 = tested on: HL-60
HOP-62 = tested on: HOP-62
M14 = tested on: M14
NCI-H460 = tested on: NCI-H460
ACHN = tested on: ACHN
LOX IMVI = tested on: LOX IMVI
PC-3 = tested on: PC-3
EKVX = tested on: EKVX

Measured: GI50

Cc1ccc(S(=O)(=O)NC(=O)NC(CC(N)=O)C(=O)O)cc1 (centres undefined)
inactive: SK-MEL-2 > 100 µM | UACC-62 > 100 µM | Malme-3M > 100 µM | SW-620 > 100 µM | OVCAR-5 > 100 µM | A549 > 100 µM | TK-10 > 100 µM | T47D > 100 µM | SK-MEL-28 > 100 µM | OVCAR-4 > 100 µM | SF-295 > 100 µM | SF-268 > 100 µM | HL-60 > 100 µM | HOP-62 > 100 µM | M14 > 100 µM | NCI-H460 > 100 µM | ACHN > 100 µM | LOX IMVI > 100 µM | PC-3 > 100 µM

COc1ccc(-c2cc(-c3ccc(Nc4ccnc5cc(C(F)(F)F)ccc45)cc3)[nH]c(=O)c2C#N)c2ccccc12
inactive: SK-MEL-2 > 56 µM | UACC-62 88.5 µM | Malme-3M > 41.2 µM | SW-620 > 100 µM | OVCAR-5 > 61.2 µM | A549 > 100 µM | TK-10 26.9 µM | T47D > 34 µM | SK-MEL-28 > 59.7 µM | OVCAR-4 > 46 µM | SF-295 25.8 µM | EKVX > 100 µM | SF-268 38.1 µM | HL-60 > 100 µM | HOP-62 11.2 µM | M14 > 42.7 µM | NCI-H460 > 100 µM | ACHN > 32.5 µM | LOX IMVI 24.2 µM | PC-3 > 100 µM

O=S1(=O)c2ccccc2C(Nc2ccccc2)N1c1ccccc1 (centres undefined)
inactive: SK-MEL-2 98.6 µM | UACC-62 > 100 µM | Malme-3M > 100 µM | SW-620 > 100 µM | OVCAR-5 > 100 µM | A549 56.8 µM | TK-10 > 100 µM | T47D 24.5 µM | SK-MEL-28 > 100 µM | OVCAR-4 67.6 µM | SF-295 > 100 µM | EKVX > 100 µM | SF-268 > 100 µM | HL-60 85.7 µM | HOP-62 > 100 µM | NCI-H460 72.9 µM | ACHN > 100 µM | LOX IMVI > 100 µM | PC-3 > 100 µM

CC(=O)Oc1ccc2c3c1O[C@H]1[C@H](O)CC[C@@]4(O)[C@@H](C2)N(C)CC[C@]314
inactive: SK-MEL-2 > 100 µM | UACC-62 > 100 µM | Malme-3M > 100 µM | SW-620 > 100 µM | OVCAR-5 > 100 µM | A549 > 100 µM | TK-10 > 100 µM | T47D > 100 µM | SK-MEL-28 > 100 µM | OVCAR-4 > 100 µM | SF-295 > 100 µM | EKVX > 100 µM | SF-268 > 100 µM | HL-60 > 100 µM | HOP-62 > 100 µM | M14 > 100 µM | ACHN > 100 µM | LOX IMVI > 100 µM | PC-3 > 100 µM

CC1(C)C(=O)/C(=C/c2ccccc2)C(C)(C)C1(C)C
inactive: SK-MEL-2 > 43.5 µM | UACC-62 54.1 µM | Malme-3M > 71.3 µM | SW-620 60.3 µM | OVCAR-5 > 100 µM | A549 57.5 µM | TK-10 46.6 µM | T47D > 65.3 µM | SK-MEL-28 > 100 µM | OVCAR-4 > 75.3 µM | SF-295 > 100 µM | EKVX > 58.5 µM | HL-60 18.9 µM | HOP-62 40.9 µM | M14 85.1 µM | NCI-H460 62.7 µM | ACHN 53.3 µM | LOX IMVI 35.4 µM | PC-3 53.7 µM

CC1(C)CC2=C(Sc3ccccc3N2)C(=O)C1C(=O)C(=O)Nc1cc(Cl)ccc1Cl (centres undefined)
inactive: SK-MEL-2 > 100 µM | UACC-62 > 100 µM | Malme-3M > 100 µM | SW-620 > 100 µM | OVCAR-5 > 100 µM | A549 > 100 µM | T47D 82.8 µM | SK-MEL-28 > 100 µM | OVCAR-4 30.1 µM | SF-295 > 100 µM | EKVX > 100 µM | SF-268 > 100 µM | HL-60 > 100 µM | M14 > 100 µM | NCI-H460 14.9 µM | ACHN > 100 µM | LOX IMVI > 100 µM | PC-3 84.5 µM

CC(=O)O[C@@]12[C@@H]3O[C@@]4(O)C[C@]5(C)[C@H]6C[C@@](C(C)C)(O[C@H]5c5ccoc5)O[C@H]1[C@]6(C4)O[C@]2(O)C(C)=CC3(C)C
inactive: SK-MEL-2 > 100 µM | UACC-62 > 100 µM | Malme-3M > 100 µM | SW-620 > 100 µM | OVCAR-5 > 100 µM | A549 > 100 µM | TK-10 > 100 µM | T47D > 100 µM | SK-MEL-28 > 100 µM | OVCAR-4 > 100 µM | SF-295 > 100 µM | EKVX > 100 µM | SF-268 > 100 µM | HL-60 > 100 µM | HOP-62 > 100 µM | M14 > 100 µM | ACHN > 100 µM | LOX IMVI > 100 µM | PC-3 > 100 µM

Cc1c(C)c(S(=O)(=O)N(CCCCCON)OCCCN)c(C)c2c1OC(C)(C)CC2
inactive: SK-MEL-2 15.4 µM | UACC-62 14.3 µM | Malme-3M 14.3 µM | SW-620 15 µM | OVCAR-5 14.9 µM | A549 13.4 µM | TK-10 14.3 µM | T47D 5 µM | SK-MEL-28 16.5 µM | OVCAR-4 7.5 µM | SF-295 15.2 µM | EKVX 12.3 µM | SF-268 16.8 µM | HL-60 5.74 µM | HOP-62 16 µM | M14 7 µM | NCI-H460 9.93 µM | ACHN 16.4 µM | LOX IMVI 9.73 µM | PC-3 13.2 µM

NN=C(CC(O)(C(F)(F)Cl)C(F)(F)Cl)CC(O)(C(F)(F)Cl)C(F)(F)Cl
inactive: SK-MEL-2 > 10 µM | UACC-62 > 10 µM | Malme-3M > 10 µM | SW-620 > 10 µM | OVCAR-5 > 10 µM | A549 > 10 µM | TK-10 > 10 µM | T47D > 10 µM | SK-MEL-28 > 10 µM | OVCAR-4 > 10 µM | SF-295 > 10 µM | EKVX > 10 µM | SF-268 > 10 µM | HL-60 > 10 µM | HOP-62 > 10 µM | M14 > 10 µM | NCI-H460 > 10 µM | ACHN > 10 µM | LOX IMVI > 10 µM | PC-3 > 10 µM

CCC(=O)NCC1CCCN2CCCCC12 (centres undefined)
inactive: SK-MEL-2 > 100 µM | UACC-62 > 100 µM | Malme-3M 44.7 µM | SW-620 > 100 µM | A549 > 100 µM | TK-10 > 100 µM | T47D > 100 µM | SK-MEL-28 > 100 µM | OVCAR-4 > 100 µM | SF-295 > 100 µM | EKVX > 100 µM | SF-268 > 100 µM | HL-60 > 100 µM | NCI-H460 > 100 µM | ACHN > 100 µM | LOX IMVI > 100 µM | PC-3 > 100 µM

O=C1Nc2ccccc2/C1=c1\[nH]c(=O)/c(=C\c2ccc(OCc3ccccc3)cn2)[nH]c1=O
inactive: SK-MEL-2 38.2 µM | UACC-62 67 µM | Malme-3M 32.4 µM | SW-620 > 100 µM | OVCAR-5 > 100 µM | A549 > 100 µM | TK-10 22.4 µM | T47D > 100 µM | SK-MEL-28 > 100 µM | OVCAR-4 72.4 µM | SF-295 16.8 µM | EKVX 86.7 µM | SF-268 21.2 µM | HL-60 49.4 µM | HOP-62 20 µM | M14 56.6 µM | NCI-H460 > 100 µM | ACHN 33.7 µM | LOX IMVI > 100 µM | PC-3 > 100 µM

NCC(=O)Nc1ccc(S(=O)(=O)O)c2cc(S(=O)(=O)O)cc(S(=O)(=O)O)c12
inactive: SK-MEL-2 > 100 µM | UACC-62 > 100 µM | Malme-3M > 100 µM | SW-620 > 100 µM | OVCAR-5 > 100 µM | A549 > 100 µM | TK-10 > 100 µM | T47D > 100 µM | SK-MEL-28 > 100 µM | OVCAR-4 > 100 µM | SF-295 > 100 µM | EKVX > 100 µM | SF-268 > 100 µM | HL-60 > 100 µM | HOP-62 > 100 µM | M14 > 100 µM | ACHN > 100 µM | LOX IMVI > 100 µM | PC-3 > 100 µM

O=S(=O)(O)c1cc(/N=N/c2cc(S(=O)(=O)O)c3cccnc3c2O)ccc1/C=C/c1ccc(/N=N/c2cc(S(=O)(=O)O)c3cccnc3c2O)cc1S(=O)(=O)O
inactive: SK-MEL-2 > 100 µM | UACC-62 > 100 µM | Malme-3M > 100 µM | SW-620 > 100 µM | OVCAR-5 > 100 µM | A549 > 100 µM | TK-10 > 100 µM | T47D > 100 µM | SK-MEL-28 > 100 µM | OVCAR-4 > 100 µM | SF-295 > 100 µM | EKVX > 100 µM | SF-268 > 100 µM | HL-60 18.6 µM | HOP-62 > 100 µM | M14 63.2 µM | NCI-H460 > 100 µM | ACHN > 100 µM | LOX IMVI > 94.8 µM | PC-3 > 100 µM

O=C1C2C3C=CC(C2C(=O)N1CN1CCOCC1)C1C2C(=O)N(CN4CCOCC4)C(=O)C2C31 (centres undefined)
inactive: SK-MEL-2 > 44 µM | UACC-62 > 47 µM | Malme-3M > 100 µM | SW-620 > 46.5 µM | OVCAR-5 > 59.2 µM | A549 > 56 µM | TK-10 > 55.3 µM | T47D > 100 µM | SK-MEL-28 > 48.6 µM | OVCAR-4 > 43.9 µM | SF-295 > 62.2 µM | EKVX 97.1 µM | SF-268 > 44.5 µM | HL-60 > 40.6 µM | HOP-62 > 100 µM | M14 > 42.9 µM | NCI-H460 > 37.5 µM | ACHN > 53.3 µM | LOX IMVI > 43.5 µM | PC-3 > 100 µM
